Reference: paper PMC4770715, “LIM kinase inhibitors disrupt mitotic microtubule organization and impair tumor cell proliferation” (Oncotarget, 2015)

Assays:
Experiment in all cases: biochemical
Set-up in all cases: KINOMEscan active-site competition binding, percent of control (100 = no competition)
Details in all cases: competition binding, percent control
[1] = target: BMX (Homo sapiens, UniProt P51813)
[2] = target: T1, YSK1 (Homo sapiens, UniProt O00506)
T1 construct: gene STK25

[3] = target: PIK3C2G (Homo sapiens, UniProt O75747)
[4] = target: RIOK3 (Homo sapiens, UniProt O14730)
[5] = target: RET (Homo sapiens, UniProt P07949)
[6] = target: T2, MEK4 (Homo sapiens, UniProt P45985)
T2 construct: gene MAP2K4

[7] = target: STK39 (Homo sapiens, UniProt Q9UEW8)
[8] = target: T3, p38-gamma (Homo sapiens, UniProt P53778)
T3 construct: gene MAPK12

[9] = target: LYN (Homo sapiens, UniProt P07948)
[10] = target: T4, MEK5 (Homo sapiens, UniProt Q13163)
T4 construct: gene MAP2K5

[11] = target: PKN2 (Homo sapiens, UniProt Q16513)
[12] = target: ULK1 (Homo sapiens, UniProt O75385)
[13] = target: CAMKK1 (Homo sapiens, UniProt Q8N5S9)
[14] = target: T5, PCTK1 (Homo sapiens, UniProt Q00536)
T5 construct: gene CDK16

[15] = target: AKT3 (Homo sapiens, UniProt Q9Y243)
[16] = target: MTOR (Homo sapiens, UniProt P42345)
[17] = target: MST1R (Homo sapiens, UniProt Q04912)
[18] = target: ERBB4 (Homo sapiens, UniProt Q15303)
[19] = target: RAF1 (Homo sapiens, UniProt P04049)
[20] = target: T6, SIK (Homo sapiens, UniProt P57059)
T6 construct: gene SIK1

[21] = target: CSNK1G1 (Homo sapiens, UniProt Q9HCP0)
[22] = target: T7, p38-delta (Homo sapiens, UniProt O15264)
T7 construct: gene MAPK13

[23] = target: MAP3K4 (Homo sapiens, UniProt Q9Y6R4)

RAF1, sequence (P04049 whole entry): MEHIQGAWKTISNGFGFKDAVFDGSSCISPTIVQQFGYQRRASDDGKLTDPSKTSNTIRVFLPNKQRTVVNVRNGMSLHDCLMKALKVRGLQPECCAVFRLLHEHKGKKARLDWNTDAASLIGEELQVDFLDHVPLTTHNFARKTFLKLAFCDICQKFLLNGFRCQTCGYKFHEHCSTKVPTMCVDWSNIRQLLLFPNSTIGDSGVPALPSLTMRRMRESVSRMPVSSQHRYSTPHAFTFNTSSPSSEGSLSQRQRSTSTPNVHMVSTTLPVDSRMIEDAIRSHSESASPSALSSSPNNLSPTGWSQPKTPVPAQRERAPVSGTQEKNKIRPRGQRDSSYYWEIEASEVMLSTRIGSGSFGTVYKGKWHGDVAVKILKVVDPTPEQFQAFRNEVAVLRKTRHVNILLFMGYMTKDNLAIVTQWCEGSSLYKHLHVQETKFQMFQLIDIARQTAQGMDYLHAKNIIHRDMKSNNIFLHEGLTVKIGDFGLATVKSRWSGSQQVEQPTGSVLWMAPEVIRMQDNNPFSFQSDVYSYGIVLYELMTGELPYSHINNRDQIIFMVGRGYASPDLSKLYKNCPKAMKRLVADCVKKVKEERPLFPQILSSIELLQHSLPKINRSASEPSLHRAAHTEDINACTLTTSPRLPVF
T4 sequence (Q13163 whole entry): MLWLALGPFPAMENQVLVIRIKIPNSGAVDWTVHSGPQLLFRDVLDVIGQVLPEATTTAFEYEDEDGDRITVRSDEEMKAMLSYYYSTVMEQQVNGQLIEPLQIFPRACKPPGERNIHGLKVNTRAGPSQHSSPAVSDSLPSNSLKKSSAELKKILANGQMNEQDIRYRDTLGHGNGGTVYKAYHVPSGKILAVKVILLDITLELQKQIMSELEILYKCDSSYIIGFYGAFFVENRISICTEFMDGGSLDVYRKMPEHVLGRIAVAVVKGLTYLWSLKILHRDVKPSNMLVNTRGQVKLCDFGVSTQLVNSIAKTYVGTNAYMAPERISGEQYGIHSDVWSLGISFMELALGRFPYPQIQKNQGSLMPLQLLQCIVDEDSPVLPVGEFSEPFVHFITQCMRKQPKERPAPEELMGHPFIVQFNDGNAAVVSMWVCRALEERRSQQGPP
PIK3C2G, sequence (O75747 whole entry): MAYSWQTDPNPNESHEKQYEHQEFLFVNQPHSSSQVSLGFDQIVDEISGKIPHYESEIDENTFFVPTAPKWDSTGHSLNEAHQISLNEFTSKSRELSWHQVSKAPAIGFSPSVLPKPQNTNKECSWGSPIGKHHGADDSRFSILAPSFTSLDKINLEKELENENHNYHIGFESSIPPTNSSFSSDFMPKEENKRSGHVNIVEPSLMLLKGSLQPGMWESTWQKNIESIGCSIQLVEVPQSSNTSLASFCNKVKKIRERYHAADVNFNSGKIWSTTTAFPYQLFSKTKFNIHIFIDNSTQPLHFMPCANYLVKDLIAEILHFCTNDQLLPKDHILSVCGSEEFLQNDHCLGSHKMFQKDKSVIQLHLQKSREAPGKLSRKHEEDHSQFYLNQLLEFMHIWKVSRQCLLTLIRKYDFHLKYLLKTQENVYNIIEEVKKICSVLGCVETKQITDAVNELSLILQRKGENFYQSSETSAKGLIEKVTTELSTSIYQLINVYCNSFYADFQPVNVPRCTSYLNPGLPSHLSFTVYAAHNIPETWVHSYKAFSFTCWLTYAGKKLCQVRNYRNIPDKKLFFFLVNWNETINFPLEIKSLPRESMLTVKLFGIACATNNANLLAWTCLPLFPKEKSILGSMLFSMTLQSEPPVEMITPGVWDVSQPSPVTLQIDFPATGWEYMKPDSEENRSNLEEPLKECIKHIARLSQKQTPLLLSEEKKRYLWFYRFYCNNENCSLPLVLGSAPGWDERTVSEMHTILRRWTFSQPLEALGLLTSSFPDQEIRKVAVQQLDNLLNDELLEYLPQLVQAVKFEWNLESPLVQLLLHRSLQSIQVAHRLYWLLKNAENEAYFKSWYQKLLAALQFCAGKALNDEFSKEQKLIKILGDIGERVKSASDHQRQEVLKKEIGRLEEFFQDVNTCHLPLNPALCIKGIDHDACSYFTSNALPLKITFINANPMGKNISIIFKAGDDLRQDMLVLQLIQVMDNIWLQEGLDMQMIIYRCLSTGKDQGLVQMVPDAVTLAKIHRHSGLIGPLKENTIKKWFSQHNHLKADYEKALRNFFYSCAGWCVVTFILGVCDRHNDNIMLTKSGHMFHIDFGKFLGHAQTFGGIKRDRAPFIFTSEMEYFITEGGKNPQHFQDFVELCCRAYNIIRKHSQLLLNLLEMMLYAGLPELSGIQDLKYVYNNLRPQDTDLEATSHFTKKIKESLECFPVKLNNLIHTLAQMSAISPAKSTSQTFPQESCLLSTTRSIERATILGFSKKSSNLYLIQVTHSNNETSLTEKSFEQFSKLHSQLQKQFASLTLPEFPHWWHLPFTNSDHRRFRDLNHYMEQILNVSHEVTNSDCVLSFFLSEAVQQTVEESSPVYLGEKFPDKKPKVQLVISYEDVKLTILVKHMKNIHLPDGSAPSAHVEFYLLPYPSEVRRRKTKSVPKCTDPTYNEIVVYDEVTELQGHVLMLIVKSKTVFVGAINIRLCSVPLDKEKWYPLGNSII
T2 sequence (P45985 whole entry): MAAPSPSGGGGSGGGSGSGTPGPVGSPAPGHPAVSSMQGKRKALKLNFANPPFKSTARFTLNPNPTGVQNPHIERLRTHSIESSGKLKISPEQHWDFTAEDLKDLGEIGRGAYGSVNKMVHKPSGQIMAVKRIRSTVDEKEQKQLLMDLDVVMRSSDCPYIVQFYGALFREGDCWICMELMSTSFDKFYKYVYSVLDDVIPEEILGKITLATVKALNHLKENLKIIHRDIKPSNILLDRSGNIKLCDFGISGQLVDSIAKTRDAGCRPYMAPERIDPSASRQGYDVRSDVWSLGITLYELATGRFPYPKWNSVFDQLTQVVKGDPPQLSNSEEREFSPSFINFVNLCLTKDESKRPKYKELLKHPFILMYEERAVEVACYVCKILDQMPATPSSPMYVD
ULK1, sequence (O75385 whole entry): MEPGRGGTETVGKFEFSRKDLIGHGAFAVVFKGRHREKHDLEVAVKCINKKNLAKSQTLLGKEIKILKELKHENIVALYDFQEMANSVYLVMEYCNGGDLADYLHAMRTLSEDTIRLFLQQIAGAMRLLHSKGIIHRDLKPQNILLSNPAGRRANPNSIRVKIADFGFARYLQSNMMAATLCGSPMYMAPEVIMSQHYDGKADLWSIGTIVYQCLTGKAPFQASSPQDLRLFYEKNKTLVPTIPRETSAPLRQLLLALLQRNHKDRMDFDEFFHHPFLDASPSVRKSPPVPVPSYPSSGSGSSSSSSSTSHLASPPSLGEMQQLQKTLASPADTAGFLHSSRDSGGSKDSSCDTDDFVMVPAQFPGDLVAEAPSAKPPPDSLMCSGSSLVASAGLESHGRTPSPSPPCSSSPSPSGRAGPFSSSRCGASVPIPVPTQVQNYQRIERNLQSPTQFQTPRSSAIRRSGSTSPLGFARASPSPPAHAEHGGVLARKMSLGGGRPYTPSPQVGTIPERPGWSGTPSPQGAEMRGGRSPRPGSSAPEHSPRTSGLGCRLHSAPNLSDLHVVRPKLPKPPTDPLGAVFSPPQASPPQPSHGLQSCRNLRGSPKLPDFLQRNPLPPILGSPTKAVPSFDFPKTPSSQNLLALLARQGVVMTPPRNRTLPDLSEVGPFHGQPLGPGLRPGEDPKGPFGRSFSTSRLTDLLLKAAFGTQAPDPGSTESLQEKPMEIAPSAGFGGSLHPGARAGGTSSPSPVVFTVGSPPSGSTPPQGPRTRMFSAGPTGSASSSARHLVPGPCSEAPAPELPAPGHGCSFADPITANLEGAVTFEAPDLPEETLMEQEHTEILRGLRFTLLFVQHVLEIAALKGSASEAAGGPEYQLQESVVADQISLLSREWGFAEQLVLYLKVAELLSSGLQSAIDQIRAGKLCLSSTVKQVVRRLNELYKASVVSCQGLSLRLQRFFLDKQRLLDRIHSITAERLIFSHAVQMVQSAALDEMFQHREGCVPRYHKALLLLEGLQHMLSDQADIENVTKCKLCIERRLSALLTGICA
CSNK1G1, sequence (Q9HCP0 whole entry): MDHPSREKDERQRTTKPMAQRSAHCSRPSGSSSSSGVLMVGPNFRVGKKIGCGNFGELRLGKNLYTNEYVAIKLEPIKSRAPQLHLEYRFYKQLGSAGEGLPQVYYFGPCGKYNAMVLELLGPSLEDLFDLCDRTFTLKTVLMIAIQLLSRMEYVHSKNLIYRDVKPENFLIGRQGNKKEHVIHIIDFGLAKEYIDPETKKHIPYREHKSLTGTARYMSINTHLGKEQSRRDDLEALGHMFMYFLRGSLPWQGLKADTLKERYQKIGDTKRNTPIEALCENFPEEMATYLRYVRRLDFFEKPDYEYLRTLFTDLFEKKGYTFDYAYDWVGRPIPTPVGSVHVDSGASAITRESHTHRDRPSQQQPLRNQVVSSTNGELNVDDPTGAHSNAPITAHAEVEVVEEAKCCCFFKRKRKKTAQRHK
T5 sequence (Q00536 whole entry): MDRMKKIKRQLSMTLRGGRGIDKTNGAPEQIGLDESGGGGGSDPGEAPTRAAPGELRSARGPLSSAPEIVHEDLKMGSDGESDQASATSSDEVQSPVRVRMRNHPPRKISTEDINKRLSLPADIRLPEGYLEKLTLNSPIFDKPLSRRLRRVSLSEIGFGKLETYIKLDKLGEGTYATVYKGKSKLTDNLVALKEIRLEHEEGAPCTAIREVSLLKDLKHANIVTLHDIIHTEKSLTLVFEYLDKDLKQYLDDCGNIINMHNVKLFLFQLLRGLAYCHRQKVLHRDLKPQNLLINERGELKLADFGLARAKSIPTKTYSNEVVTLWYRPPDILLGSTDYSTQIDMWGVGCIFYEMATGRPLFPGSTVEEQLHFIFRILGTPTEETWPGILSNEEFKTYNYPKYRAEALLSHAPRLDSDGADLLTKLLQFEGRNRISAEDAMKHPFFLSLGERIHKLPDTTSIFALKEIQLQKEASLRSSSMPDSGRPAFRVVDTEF

Structure (SMILES) | remaining binding at 10 µM [1] | remaining binding at 10 µM [2] | remaining binding at 10 µM [3] | remaining binding at 10 µM [4] | remaining binding at 10 µM [5] | remaining binding at 10 µM [6] | remaining binding at 10 µM [7] | remaining binding at 10 µM [8] | remaining binding at 10 µM [9] | remaining binding at 10 µM [10] | remaining binding at 10 µM [11] | remaining binding at 10 µM [12] | remaining binding at 10 µM [13] | remaining binding at 10 µM [14] | remaining binding at 10 µM [15] | remaining binding at 10 µM [16] | remaining binding at 10 µM [17] | remaining binding at 10 µM [18] | remaining binding at 10 µM [19] | remaining binding at 10 µM [20] | further results
COc1ccc(-c2cnccc2-c2cnc(NC(=O)C(C)C)s2)c(C(F)(F)F)c1 [CRT0105446, N-{5-[3-(4-Methoxy-2-trifluoromethyl-phenyl)-pyridin-4-yl]-hiazol-2-yl}-isobutyramide] | 100% | 100% | 100% | 94% | 87% | 82% | 100% | 100% | 100% | 100% | 96% | 100% | 82% | 11% | 100% | 64% | 100% | 100% | 100% | 84% | remaining binding at 10 µM [21]: 94%; remaining binding at 10 µM [22]: 97%; remaining binding at 10 µM [23]: 99%
Cc1ccc(-c2cnccc2-c2cnc(Nc3ccc(O)cc3)s2)c(Cl)c1 [CRT0105950, 4-{5-[3-(2-Chloro-4-methyl-phenyl)-pyridin-4-yl]-thiazol-2-ylamino}-phenol] | 81% | 22% | 95% | 66% | 1.2% | 1.8% | 100% | 100% | 26% | 60% | 26% | 38% | 26% | 63% | 100% | 35% | 92% | 94% | 85% | 6.4% | remaining binding at 10 µM [21]: 82%; remaining binding at 10 µM [22]: 100%; remaining binding at 10 µM [23]: 100%
